# Source: patent US20140329863A1 (priority 2011, published 2014)
# “And” between values parts separate entries of the source, which are not always exact repeats. Equal values may be shown once. Read-outs that look alike come from different tables or passages of the source.
# Legend:
# [1] = test system: PrP^Sc in nondividing ScN2a-cl3 cells; type: cell-based, mouse; conditions: read-out: Non-Dividing ELISA EC50 (μM) Mean (n = 3); ScN2a-c13 non-dividing cells; mean n = 3
# [2] = test system: N2a-cl3 cells; experiment: cells; conditions: Mus musculus, N2a-cl3, read-out: Dividing Calcein EC50 (μM) Mean (n = 3)
# [3] = Hepatic microsomal stability, rat; conditions: […]
# [4] = test system: PrP^Sc in dividing ScN2a-cl3 cells; type: cell-based, mouse; parameters: Dividing ELISA pEC50 (μM) 1st Expt. / Dividing ELISA pEC50 (μM) 2nd Expt. / Dividing ELISA pEC50 (μM) 3rd Expt. / Dividing ELISA pEC50 (μM) Mean: unit not given here
# [5] = test system: PrP^Sc in ScN2a-cl3 cells; type: cell-based, mouse; conditions: Western immunoblots
# [6] = test system: N2a-cl3 cells; conditions: mouse
# [7] = in vitro; conditions: mouse
# [8] = ScN2a-cl3 dividing cells, 1st determination
# [9] = ScN2a-cl3 dividing cells, 2nd determination
# [10] = ScN2a-cl3 dividing cells, 3rd determination
# [11] = ScN2a-cl3 dividing cells, mean of three determinations
# [12] = read-out: Dividing ELISA EC50 (μM) 1st Expt., ScN2a-cl3 dividing cells, 1st determination
# [13] = read-out: Dividing ELISA EC50 (μM) 2nd Expt., ScN2a-cl3 dividing cells, 2nd determination
# [14] = read-out: Dividing ELISA EC50 (μM) 3rd Expt., ScN2a-cl3 dividing cells, 3rd determination
# [15] = read-out: Dividing ELISA EC50 (μM) Mean, ScN2a-cl3 dividing cells, mean of three determinations
# [16] = read-out: EC50 (nM): Western, ScN2a-cl3 cells
# [17] = read-out: Potency (nM) Western (EC50), dividing ScN2a-cl3 cells
# [18] = read-out: EC50 (nM): ELISA, dividing ScN2a-cl3 cells
# [19] = read-out: Potency (nM) ELISA (EC50), PrP^Sc ELISA, dividing ScN2a-cl3 cells
# [20] = read-out: Antiprion activity EC50, thienopyridine analogs
smiles,measurement,setting,value
"Cc1ccc(Nc2nc(-c3ccccc3)cs2)nc1 [compound 25, (5-Methylpyridin-2-yl)-(4-phenylthiazol-2-yl)-amine]",EC50,[1],> 32 µM
same,EC50,[2],> 32 µM
same,Microsome stability T1/2,[3],10 min
same,Dividing ELISA pEC50 (μM) 1st Expt.,[4]; [8],4.89
same,Dividing ELISA pEC50 (μM) 2nd Expt.,[4]; [9],5.31
same,Dividing ELISA pEC50 (μM) 3rd Expt.,[4]; [10],5.24
same,Dividing ELISA pEC50 (μM) Mean,[4]; [11],5.15
same,EC50,"[4]; read-out: Antiprion activity ScN2a-cl3 EC50, ScN2a-cl3 cells",7.88 µM
same,EC50,[4]; [12],13 µM
same,EC50,[4]; [13],4.9 µM
same,EC50,[4]; [14],5.74 µM
same,EC50,[4]; [15],7.88 µM
COc1cccc(Nc2nc(N)c3ccccc3n2)c1 [IND-0035916],EC50,[5]; [16],5990 nM
same,EC50,[5]; [17],5990 nM
same,EC50 (nM): Calcein (LC50 values from calcein assays),[6],"MW: 266.3 EC50 (nM): ELISA: 4023 Calcein: >10,000 Western: 5987"
same,CC50,[7],> 10 µM
same,EC50,[4]; [18],4.02 µM
same,EC50,[4]; [19],4.02 µM
Cn1c(=N)n(CC(=O)c2ccc(Cl)cc2)c2ccccc21 [IND-0026326],EC50,[5]; [16],4970 nM
same,EC50,[5]; [17],4970 nM
same,EC50 (nM): Calcein (LC50 values from calcein assays),[6],"MW: 299.8 EC50 (nM): ELISA: 5900 Calcein: >10,000 Western: 4967"
same,CC50,[7],> 10 µM
same,EC50,[4]; [18],5.9 µM
same,EC50,[4]; [19],5.9 µM
CC(=O)c1ccc(N2CCN(Cc3cccnc3)CC2)cc1 [IND-0018629],EC50,[5]; [16],886 nM
same,EC50,[5]; [17],886 nM
same,EC50 (nM): Calcein (LC50 values from calcein assays),[6],"MW: 295.4 EC50 (nM): ELISA: 2943 Calcein: >10,000 Western: 886"
same,CC50,[7],> 10 µM
COc1cc(N)c(-c2ccc3cc(OC)c(OC)cc3n2)cc1OC [IND-0044355],EC50,[5]; [16],1830 nM
same,EC50,[5]; [17],1830 nM
same,EC50 (nM): Calcein (LC50 values from calcein assays),[6],"MW: 340.4 EC50 (nM): ELISA: 2143 Calcein: >10,000 Western: 1833"
same,CC50,[7],> 10 µM
same,EC50,[4]; [18],2.14 µM
same,EC50,[4]; [19],2.14 µM
CN(C)CCNc1nc(-c2ccc(Cl)cc2)nc2ccccc12 [IND-0034921],EC50,[5]; [16],2010 nM
same,EC50,[5]; [17],2010 nM
same,EC50 (nM): Calcein (LC50 values from calcein assays),[6],"MW: 326.8 EC50 (nM): ELISA: 3693 Calcein: >10,000 Western: 2009"
same,CC50,[7],> 10 µM
same,EC50,[4]; [18],3.69 µM
same,EC50,[4]; [19],3.69 µM
COc1cc(NC(=O)c2sc3nc(-c4cccs4)ccc3c2N)cc(OC)c1OC [IND-0042103],CC50,[7],> 10 µM
same,EC50,[4]; [20],> 10 µM
COc1ccc(-c2ccc3c(N)c(C(=O)Nc4ccc(C(C)=O)cc4)sc3n2)cc1 [IND-0037769],CC50,[7],> 10 µM
same,EC50,[4]; [20],0.097 µM
COc1ccc2cc3c(N)c(C(=O)Nc4ccc(C(C)=O)cc4)sc3nc2c1 [IND-0052025],EC50,[5]; [16],61 nM
same,EC50,[5]; [17],61 nM
same,EC50 (nM): Calcein (LC50 values from calcein assays),[6],"MW: 391.4 EC50 (nM): ELISA: 57 Calcein: >10,000 Western: 61"
same,CC50,[7],> 10 µM
same,EC50,[4]; [20],0.074 µM
same,EC50,[4]; [18],0.057 µM
same,EC50,[4]; [19],0.057 µM
CCc1ccc(-c2cn3ccccc3n2)cc1 [IND-0009417],EC50,[5]; [16],4720 nM
same,EC50,[5]; [17],4720 nM
same,EC50 (nM): Calcein (LC50 values from calcein assays),[6],"MW: 222.3 EC50 (nM): ELISA: 9158 Calcein: >10,000 Western: 4715"
same,CC50,[7],> 10 µM
same,EC50,[4]; [18],9.16 µM
same,EC50,[4]; [19],9.16 µM
CCc1ccc(-c2cn3cc(C)ccc3n2)cc1 [IND-0009419],EC50,[5]; [16],265 nM
same,EC50,[5]; [17],285 nM
same,EC50 (nM): Calcein (LC50 values from calcein assays),[6],"MW: 236.3 EC50 (nM): ELISA: 709 Calcein: >10,000 Western: 265"
same,CC50,[7],> 10 µM
same,EC50,[4]; [18],0.709 µM
same,EC50,[4]; [19],0.709 µM
Nc1c(C(=O)Nc2cc(F)ccc2F)sc2nc(-c3cccs3)ccc12 [IND-0024581],CC50,[7],> 10 µM
same,EC50,[4]; [20],2.06 µM
COc1ccc(NC(=O)c2sc3nc(-c4cccs4)ccc3c2N)cc1OC [IND-0024573],CC50,[7],> 10 µM
same,EC50,[4]; [20],0.396 µM
COc1ccc(-c2ccc3c(N)c(C(=O)Nc4ccc(F)cc4)sc3n2)cc1 [IND-0035860],CC50,[7],> 10 µM
same,EC50,[4]; [20],0.057 µM and 0.059 µM
CSc1ccc(NC(=O)c2sc3nc(-c4cccs4)ccc3c2N)cc1 [IND-0024576],CC50,[7],> 10 µM
same,EC50,[4]; [20],0.077 µM
"COc1ccc(Nc2nc(-c3ccc(OC)c(OC)c3)cs2)nc1 [compound 13, [4-(3,4-dimethoxyphenyl)-thiazol-2-yl]-(5-methoxypyridin-2-yl)-amine]",EC50,[1],> 32 µM
same,EC50,[2],> 32 µM
same,Microsome stability T1/2,[3],45 min
same,EC50,[4]; [14],0.917 µM
COc1ccc(-c2ccc3c(N)c(C(=O)Nc4ccc5c(c4)OCCO5)sc3n2)cc1 [IND-0035833],CC50,[7],> 10 µM
same,EC50,[4]; [20],> 10 µM
COc1ccc(CNC(=O)c2sc3nc(-c4ccc(OC)cc4)ccc3c2N)cc1 [IND-0040541],CC50,[7],> 10 µM
same,EC50,[4]; [20],> 10 µM
O=C(Nc1nc(-c2ccc3ccccc3c2)cs1)C1CC1 [IND-0030883],EC50,[5]; [17],570 nM
same,CC50,[7],> 10 µM
same,EC50,[4]; [19],0.913 µM
COc1ccc(-c2ccc3c(N)c(C(=O)Nc4ccc(F)cc4)sc3n2)cc1OC [IND-0044746],CC50,[7],> 10 µM
same,EC50,[4]; [20],0.227 µM
COc1ccc(-c2ccc3c(N)c(C(=O)NCCc4ccc(OC)c(OC)c4)sc3n2)cc1 [IND-0037771],CC50,[7],> 10 µM
same,EC50,[4]; [20],0.419 µM
"COc1ccc(-c2csc(Nc3cnccn3)n2)cc1OC [compound 11, [4-(3,4-dimethoxyphenyl)-thiazol-2-yl]pyrazin-2-yl-amine]",EC50,[1],> 32 µM
same,EC50,[2],> 32 µM
same,melting point,,205 to 207 °C
same,Dividing ELISA pEC50 (μM) 1st Expt.,[4]; [8],4.59
same,Dividing ELISA pEC50 (μM) 2nd Expt.,[4]; [9],5.03
same,Dividing ELISA pEC50 (μM) 3rd Expt.,[4]; [10],4.93
same,Dividing ELISA pEC50 (μM) Mean,[4]; [11],4.85
same,EC50,[4]; [12],26 µM
same,EC50,[4]; [13],9.23 µM
same,EC50,[4]; [14],11.7 µM
same,EC50,[4]; [15],15.6 µM
"COc1ccc(-c2csc(Nc3ccncc3)n2)cc1OC [compound 8, [4-(3,4-dimethoxyphenyl)-thiazol-2-yl]pyridin-4-yl-amine]",EC50,[1],> 32 µM
same,EC50,[2],> 32 µM
same,melting point,,205 to 207 °C
same,Dividing ELISA pEC50 (μM) 1st Expt.,[4]; [8],>4.5
same,Dividing ELISA pEC50 (μM) 2nd Expt.,[4]; [9],4.60
same,Dividing ELISA pEC50 (μM) 3rd Expt.,[4]; [10],4.57
same,EC50,[4]; [12],> 32 µM
same,EC50,[4]; [13],25.2 µM
same,EC50,[4]; [14],26.9 µM
same,EC50,[4]; [15],> 28 µM
"c1ccc(-c2cc(-c3csc(Nc4ccncc4)n3)on2)cc1 [compound 45, [4-(3-Phenylisoxazol-5-yl)-thiazol-2-yl]-pyridin-4-yl-amine]",EC50,[1],> 32 µM
same,EC50,[2],> 32 µM
same,melting point,,269 to 270 °C
same,Dividing ELISA pEC50 (μM) 1st Expt.,[4]; [8],5.50
same,Dividing ELISA pEC50 (μM) 2nd Expt.,[4]; [9],5.49
same,Dividing ELISA pEC50 (μM) 3rd Expt.,[4]; [10],5.17
same,Dividing ELISA pEC50 (μM) Mean,[4]; [11],5.38
same,EC50,[4]; [12],3.16 µM
same,EC50,[4]; [13],3.25 µM
same,EC50,[4]; [14],6.83 µM
same,EC50,[4]; [15],4.42 µM
"COc1ccc(-c2csc(Nc3ncccc3C)n2)cc1OC [compound 15, [4-(3,4-dimethoxyphenyl)-thiazol-2-yl]-(3-methylpyridin-2-yl)-amine]",EC50,[1],> 32 µM
same,EC50,[2],> 32 µM
same,melting point,,264 to 266 °C
same,Dividing ELISA pEC50 (μM) 1st Expt.,[4]; [8],4.89
same,Dividing ELISA pEC50 (μM) 2nd Expt.,[4]; [9],5.68
same,Dividing ELISA pEC50 (μM) 3rd Expt.,[4]; [10],5.17
same,Dividing ELISA pEC50 (μM) Mean,[4]; [11],5.25
same,EC50,[4]; [12],13 µM
same,EC50,[4]; [13],2.07 µM
same,EC50,[4]; [14],6.81 µM
same,EC50,[4]; [15],7.29 µM
Nc1c(C(=O)Nc2ccc(F)cc2)sc2nc(-c3ccc4c(c3)OCO4)ccc12 [IND-0042063],CC50,[7],> 10 µM
same,EC50,[4]; [20],0.613 µM
